Results reported in US11702442B2, “Cyclic dinucleotide compounds as sting agonists” (The Regents of the University of California, priority 2019, dated 2023).
Entries after “also recorded” stand apart in the source; their conditions may differ.

How the values were obtained:
STING pathway [1] = assay: IRF3 phosphorylation in RAW 264.7 cells (immunoblot pIRF3 vs β-actin); format: cell-based, murine; conditions: 2 h after transfection; for IRF3 phosphorylation (pIRF3), concentration dependence: RAW 264.7, 1, 5 and 10 μM CDN
Experimental: FIGS. 2A-2B show IRF3 phosphorylation induced by c-di-GMP and its analogues. […] 1, 5 and 10 μM of each CDN was used to transfect RAW 264.7 cells. Cells were lysed with NP-40 lysis buffer 2 h post transfection, 20 μg of total protein was loaded on SDS-polyacrylamide gel. Proteins were transferred to PVDF membrane after gel electrophoresis, and immunoblotted against pIRF3 and β-actin. […] The y-axis indicates relative intensity of pIRF3 compare to β-actin.
To analyze the immunostimulatory effects of all synthetic CDNs in greater detail, RAW 264.7 cells were treated with various concentrations of c-di-GMP, c-di-tzGMP, c-di-thGMP, c-GthGMP and c-GtzGMP and the phosphorylation of IRF3 to pIRF3 was evaluated. CDNs were thus transfected into RAW 264.7 murine cells with digitonin as described in previous studies.[7b,16] Cells were then lysed with NP-40 buffer 2 h after transfection, and total protein was collected for immunoblotting against phosphorylated IRF3 (pIRF3) and β-actin. […] Two other biological replicates produced similar trends (See FIG. S2 in Yi et al, ChemBioChem, Volume 21 (2020)).
Immunoblotting. RAW 264.7 cells were plated on 24-well plates (5×10^5 cells per well) and incubate at 37° C. for 48 h. Cells were then transfected with 1-10 μM of CDN in a permeabilization buffer containing 10 μg/mL digitonin, 50 mM HEPES, pH 7, 100 mM KCl, 3 mM MgCl2, 85 mM sucrose, 1 mM ATP, 0.1 mM DTT, 0.2% BSA for 30 mins at 37° C., then incubated with regular growth medium for 2 h. Cells were lysed with NP-40 lysis buffer containing protease inhibitor cocktail (Roche), PhosSTOP (Roche) and PMSF, and total protein was collected and quantified by BCA assay. Protein extracts were resolved by SDS-PAGE with 7.5% gel and transferred to PVDF membrane. Proteins were detected with the following primary antibodies: rabbit anti-pIRF3 monoclonal antibody (Cell Signaling Technology), mouse anti-β actin monoclonal antibody (Sigma-Aldrich).

STING pathway [2] = assay: IFN-β mRNA production in RAW 264.7 cells by RT-qPCR; format: cell-based, murine; conditions: for time post transfection of highest IFN-β mRNA production: RAW 264.7, 1, 5 and 10 μM CDN, 2, 4 and 6 h tested; for order of IFN-β induction: RAW 264.7, RT-qPCR, FIG. 3; for IFN-β mRNA production / IFN response: RAW 264.7, 1, 5, 10 μM CDN, 2, 4, 6 h
Experimental: FIGS. 3A-3C provide IFN data. […] RAW 264.7 cells were transfected with 1, 5, 10 μM of c-di-GMP, c-di-^tzGMP, c-G^thGMP, c-di-G^thGMP and c-G^tzGMP, and incubated for 2, 4, 6 h before being lysed by TRIzol. RNA purification and RT-qPCR were conducted following the protocol described in the Experimental Section. FIG. 3B show IFN response after 2, 4, 6 h of incubation with 5 μM of CDNs. […] Two independent assays were performed in triplicates (n=2). Error bars indicate SD. See Yi et al, Tuning the Innante Immune Response to Cyclic Dinucleotides by Using Atomic Mutagenesis, ChemBioChem, Volume 21 (2020).
As most synthetic c-di-GMP analogues activated IRF3, the inventors analyzed their dose and time dependency for inducing IFN-β mRNA production by using RT-qPCR. RAW 264.7 cells were transfected with 1, 5 and 10 μM of CDNs as described above and incubated for 2, 4 and 6 h. Total RNA was isolated and used for RT-qPCR. As shown in FIGS. 3A-3B, c-di-GMP induced the most IFN-β mRNA production 4 h post transfection, whereas the highest response was observed after 2 h for c-di-tzGMP, c-GthGMP, and c-GtzGMP.
RT-qPCR. RAW 264.7 cells were plated on 48-well plates (2.5×10^5 cells per well) and transfected with CDN using the same method as above after 48 h of incubation at 37° C. Cells were then incubate with regular growth medium for designated time, and total RNA was isolated with TRIzol® reagent and purified with RNeasy mini kit (Qiagen) following the manufacturer's protocol. Following elution, RNA yields were evaluated using a Nanodrop spectrophotometer (Nanodrop technologies). RNA samples were converted to cDNA with SuperScript III First-Strand Synthesis kit (Invitrogen) with random hexamers following the manufacturer's protocol. Quantitative PCR (SYBR Green) analysis was performed in duplicates on an Applied Biosystems 7300 Real-time PCR system (Invitrogen). Transcription level of IFN-β gene of each sample was normalized to housekeeping gene TBP and then to untreated samples (UT) using the delta-delta CT method.

DncV = DncV (Vibrio cholerae serotype O1, UniProt Q9KVG7); assay: DncV-mediated CDN synthesis kinetics monitored by HPLC; format: biochemical; parameters: made in house; host or cells: Escherichia coli BL21(DE3); conditions: for k2/k3: product formation vs intermediate degradation; for k2 / k3 / k1: 500 μM NTP, DncV, 37° C., mean±SD; for k2: cyclization of intermediate to product; for k3: degradation of intermediate; for k1: first phosphodiester bond formation; for k1 derived from HPLC analysis: as quoted for comparison with kapp
DncV, sequence (Q9KVG7 whole entry): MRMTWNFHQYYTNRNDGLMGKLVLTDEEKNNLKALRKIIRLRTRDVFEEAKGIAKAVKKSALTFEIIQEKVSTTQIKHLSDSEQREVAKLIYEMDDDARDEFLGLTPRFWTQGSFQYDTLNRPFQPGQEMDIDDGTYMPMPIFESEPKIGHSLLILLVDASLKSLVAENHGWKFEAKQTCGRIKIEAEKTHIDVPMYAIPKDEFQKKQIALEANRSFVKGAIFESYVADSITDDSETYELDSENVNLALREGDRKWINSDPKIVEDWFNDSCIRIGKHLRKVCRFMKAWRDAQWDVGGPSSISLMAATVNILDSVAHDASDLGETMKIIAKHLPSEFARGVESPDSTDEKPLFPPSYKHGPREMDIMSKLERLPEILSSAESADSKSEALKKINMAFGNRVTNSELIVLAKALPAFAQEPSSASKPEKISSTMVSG
Description: DncV generates CDNs through a series of sequential reactions, which are thought to involve a release-and-rebound process of the intermediate. [7b,17] After the first 3′,5′-phosphodiester bond formation, the linear dinucleotide pppNpN is released and oppositely rebound to the enzyme, after which the second 3′,5′-phosphodiester linkage is made. [7b,16b,18] To ultimately apply and interpret real-time fluorescence measurements, a better understanding of the enzymatic conversion of GTP and its analogues into the corresponding CDNs is therefore required. The reaction time course was consequently analyzed, paying particular attention to the accumulation and consumption of intermediates. DncV was incubated with GTP, tzGTP and thGTP, and the reactions containing each of the corresponding substrates were quenched with calf intestinal alkaline phosphatase (CIAP) at designated time points. The relative concentrations of the starting material (S), uncyclized intermediate (I) and product (P) were then monitored by HPLC. […] Taking into account the unique release-and-rebound process of the uncyclized dinucleotide intermediate, [16b,20] the kinetics of the DncV-mediated CDN syntheses was therefore analyzed according to the model in Scheme 1a and the differential Equations (1)-(4), in which S represents the starting NTP, I1 and I2 respectively represent intermediates pppNpN and degraded intermediate pNpN (I=I1+I2), and P represents the product CDN. Papp (apparent product) stands for the sum of all the dinucleotide species, including linear ones and cyclized products.
Differential Equations (1)-(4) d[S]/dt=−2k1[S]^2 (1) d[I1]/dt=k1[S]^2−[…] (2) d[P]/dt=k2[I3] (3) d[I2]/dt=k3[I1] (4)
[…] of the mixture was subjected to HPLC analysis after filtration. The reaction mixture was separated by Sepax Bio C-18 column (250×10 mm, 5 pmparticle size) with a gradient of 0.5%-25% of 10 mM TEAA, pH7 in Me0H in 20 min at 25° C. on an Agilent 1200 series HPLC system (Agilent Technologies).
Data Analysis and curve fitting. […] The relative concentrations were plotted against time.

For Nc1nc2c(ncn2[C@@H]2O[C@@H]3COP(=O)(O)O[C@H]4[C@@H](O)[C@H](n5cnc6c(=O)[nH]c(N)nc65)O[C@@H]4COP(=O)(O)O[C@H]3[C@H]2O)c(=O)[nH]1 [c-di-GMP, reference compound], the “IRF3 phosphorylation (pIRF3)” value (STING pathway [1]; RAW 264.7, 1 μM CDN) was “did not induce obvious IRF3 activation”, the “IRF3 phosphorylation (pIRF3)” value (STING pathway [1]; RAW 264.7, 5 and 10 μM CDN) was “comparable efficiency in inducing IRF3 phosphorylation” and the “time post transfection of highest IFN-β mRNA production” value (“time post transfection” for short) (STING pathway [2]) was 4 h. For the same compound, the “order of IFN-β induction” value (STING pathway [2]) was “c-GthGMP>c-di-tzGMP>c-GtzGMP>c-di-GMP>c-di-thGMP” and the k2/k3 (DncV) was 116.

With Nc1nc2c([C@@H]3O[C@@H]4COP(=O)(O)O[C@H]5[C@@H](O)[C@H](c6snc7c(=O)[nH]c(N)nc67)O[C@@H]5COP(=O)(O)O[C@H]4[C@H]3O)snc2c(=O)[nH]1 [c-di-^tzGMP] the “IRF3 phosphorylation (pIRF3), concentration dependence” value (STING pathway [1]) was “Increasing amounts of phosphorylated IRF3”, the “IFN-β mRNA production / IFN response” value (STING pathway [2]) was “earlier and stronger maximum IFN-β response compared to the native c-di-GMP” and the “time post transfection” value (STING pathway [2]) was 2 h. For the same compound, the “order of IFN-β induction” value (STING pathway [2]) was “c-GthGMP>c-di-tzGMP>c-GtzGMP>c-di-GMP>c-di-thGMP”, the k2 (DncV) was “(3.4 ± 0.2) × 10^−3 s^−1” and the k2 (DncV; listed as c-di-tzGMP) was “(3.4±0.2)×10^−3 s^−1”. For the same compound, the k3 (DncV) was “(1.3 ± 0.1) × 10^−4 s^−1”, the k3 (DncV; listed as c-di-tzGMP) was “(1.3±0.1)×10^−4 s^−1” and the k1 (DncV) was “(1.26 ± 0.07) × 10^−6 μM^−1s^−1”. For the same compound, the k1 (DncV; listed as c-di-tzGMP) was “(1.26±0.07)×10^−6 μM^−1s^−1”, the “k1 derived from HPLC analysis” value (DncV) was 1.26 ± 0.07 M⁻¹ s⁻¹ and the k2/k3 (DncV) was 26.

With Nc1nc2c([C@@H]3O[C@@H]4COP(=O)(O)O[C@H]5[C@@H](O)[C@H](n6cnc7c(=O)[nH]c(N)nc76)O[C@@H]5COP(=O)(O)O[C@H]4[C@H]3O)scc2c(=O)[nH]1 [c-G^thGMP] the “IRF3 phosphorylation (pIRF3), concentration dependence” value (STING pathway [1]) was “no clear dose-response”, the “IFN-β mRNA production relative to c-di-GMP” value (STING pathway [2]; RAW 264.7, 5 μM CDN, 2 h incubation) was “tenfold higher” and the “IFN-β mRNA production / IFN response” value (STING pathway [2]) was “highest potency; also recorded: earlier and stronger maximum IFN-β response compared to the native c-di-GMP; also recorded: strongest effect on IFN-β induction of all analogues tested; also recorded: faster and greater innate immune response relative to the native signal c-di-GMP”. The “time post transfection” value (STING pathway [2]) was 2 h and the “order of IFN-β induction” value (STING pathway [2]) was “c-GthGMP>c-di-tzGMP>c-GtzGMP>c-di-GMP>c-di-thGMP”.

In the case of Nc1nc2c([C@@H]3O[C@@H]4COP(=O)(O)O[C@H]5[C@@H](O)[C@H](c6scc7c(=O)[nH]c(N)nc67)O[C@@H]5COP(=O)(O)O[C@H]4[C@H]3O)scc2c(=O)[nH]1 [c-di-^thGMP], the “IRF3 phosphorylation (pIRF3), concentration dependence” value (STING pathway [1]) is reported as “did not trigger observable IRF3 activation at any of the concentrations tested”, the “IFN-β mRNA production / IFN response” value (STING pathway [2]) is reported as “minimal; also recorded: essentially inactive” and the “order of IFN-β induction” value (STING pathway [2]) is reported as “c-GthGMP>c-di-tzGMP>c-GtzGMP>c-di-GMP>c-di-thGMP”. The k2 (DncV) was “(2.32 ± 0.05) × 10^−4 s^−1”, the k2 (DncV; listed as c-di-thGMP) was “(2.32±0.05)×10^−3 s^−1” and the k3 (DncV) was “(2.91 ± 0.01) × 10^−5 s^−1”. For the same compound, the k3 (DncV; listed as c-di-thGMP) was “(2.91±0.01)×10^−5 s^−1”, the k1 (DncV) was “(3.08 ± 0.03) × 10^−7 μM^−1s^−1” and the k1 (DncV; listed as c-di-thGMP) was “(3.08±0.03)×10^−7 μM^−1s^−1”. For the same compound, the “k1 derived from HPLC analysis” value (DncV) was 0.31 ± 0.03 M⁻¹ s⁻¹ and the k2/k3 (DncV) was 8.0.
